Experimental data as given in ChEMBL document CHEMBL3596104, “Covalent modifier-type aggregation inhibitor of amyloid-β based on a cyclo-KLVFF motif” (Bioorg Med Chem Lett, 2015).
Activity calls are given as the source filed them. The rule behind the calls is not given here. Starred links: 1 amine or outer side, 2 acyl side, 3 side chain; linkers in the order of their positions; H or OH if unused. Non-standard residues stand in square brackets, D forms with d. Residues, ends and D or L forms follow the SMILES beside them. Phe(4-CF3-diazirinyl) = N[C@@H](Cc1ccc(C2(C(F)(F)F)N=N2)cc1)C(=O)O; X1 = O=C([C@H](Cc1ccc(C(O)C(F)(F)F)cc1)N[*:1])[*:2]; Dip = N[C@H](C(=O)O)C(c1ccccc1)c1ccccc1

What was measured:
[1] = target: Amyloid-beta precursor protein (Homo sapiens) (UniProt P05067); test: Binding affinity to amyloid beta (1 to 42) (unknown origin) assessed as intensity of peak for compound-amyloid beta (1 to 16) adduct at 200 uM incubated for 10 mins irradiated with UV light for 10 mins by MALDI-TOF-MS method
Sequence of Amyloid-beta precursor protein (Homo sapiens) (P05067 whole entry): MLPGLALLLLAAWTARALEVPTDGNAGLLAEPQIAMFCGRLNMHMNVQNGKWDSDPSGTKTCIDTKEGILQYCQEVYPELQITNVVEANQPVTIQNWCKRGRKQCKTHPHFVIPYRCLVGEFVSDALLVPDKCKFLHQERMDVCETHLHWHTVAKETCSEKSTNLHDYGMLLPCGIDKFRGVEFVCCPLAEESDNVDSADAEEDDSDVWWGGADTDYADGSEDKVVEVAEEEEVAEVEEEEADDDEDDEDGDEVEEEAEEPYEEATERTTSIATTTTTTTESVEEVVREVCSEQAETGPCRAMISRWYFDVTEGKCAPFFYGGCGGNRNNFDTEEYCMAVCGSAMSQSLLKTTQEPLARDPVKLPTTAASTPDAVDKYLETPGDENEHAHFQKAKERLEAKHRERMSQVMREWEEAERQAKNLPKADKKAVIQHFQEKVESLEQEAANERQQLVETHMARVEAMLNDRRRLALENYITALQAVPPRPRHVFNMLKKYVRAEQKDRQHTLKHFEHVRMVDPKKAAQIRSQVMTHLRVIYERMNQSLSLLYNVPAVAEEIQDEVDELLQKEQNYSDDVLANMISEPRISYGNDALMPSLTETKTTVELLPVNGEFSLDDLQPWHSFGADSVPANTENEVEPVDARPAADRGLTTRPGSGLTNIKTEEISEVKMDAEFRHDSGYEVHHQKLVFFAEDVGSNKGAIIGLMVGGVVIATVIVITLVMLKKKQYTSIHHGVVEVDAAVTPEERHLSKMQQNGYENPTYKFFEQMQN

[2] = target: Amyloid-beta precursor protein (Homo sapiens) (UniProt P05067); test: Binding affinity to amyloid beta (1 to 42) (unknown origin) assessed as fluorescence intensity at 50 uM by Thioflavin-T fluorescence assay (reference value: 100%)
[3] = target: Amyloid-beta precursor protein (Homo sapiens) (UniProt P05067); test: Binding affinity to amyloid beta (1 to 42) (unknown origin) assessed as intensity of peak for compound-amyloid beta (1 to 16) adduct at 200 uM incubated for 20 mins irradiated with UV light for 10 mins by MALDI-TOF-MS method (reference value: 10%)
[4] = target: Amyloid-beta precursor protein (Homo sapiens) (UniProt P05067); test: Binding affinity to amyloid beta (1 to 42) (unknown origin) assessed as intensity of peak for compound-amyloid beta (1 to 16) adduct at 200 uM incubated for 60 mins irradiated with UV light for 10 mins by MALDI-TOF-MS method (reference value: 10%)
[5] = target: Amyloid-beta precursor protein (Homo sapiens) (UniProt P05067); test: Binding affinity to amyloid beta (1 to 42) (unknown origin) assessed as intensity of peak for compound-amyloid beta (1 to 16) adduct at 200 uM incubated for 120 mins irradiated with UV light for 10 mins by MALDI-TOF-MS method (reference value: 10%)
[6] = target: Amyloid-beta precursor protein (Homo sapiens) (UniProt P05067); test: Binding affinity to amyloid beta (1 to 42) (unknown origin) assessed as intensity of peak for compound-amyloid beta (17 to 28) adduct at 200 uM incubated for 20 to 120 mins irradiated with UV light for 10 mins by MALDI-TOF-MS method (reference value: 10%)
[7] = target: Amyloid-beta precursor protein (Homo sapiens) (UniProt P05067); test: Binding affinity to amyloid beta (1 to 42) (unknown origin) assessed as intensity of peak for compound-amyloid beta (29 to 42) adduct at 200 uM incubated for 20 to 120 mins irradiated with UV light for 10 mins by MALDI-TOF-MS method (reference value: 10%)
[8] = target: Amyloid-beta precursor protein (Homo sapiens) (UniProt P05067); test: Binding affinity to amyloid beta (1 to 16) (unknown origin) assessed as intensity of peak for compound-amyloid beta (1 to 16) adduct at 200 uM irradiated with UV light for 10 mins by MALDI-TOF-MS method
[9] = target: Amyloid-beta precursor protein (Homo sapiens) (UniProt P05067); test: Binding affinity to amyloid beta (1 to 42) (unknown origin) assessed as compound-amyloid beta (4 to 11) adduct formation at Tyr10 residue at 200 uM incubated for 2 hrs irradiated with UV light for 10 mins by LC-MS/MS method
[10] = target: T1, Angiotensinogen (Homo sapiens) (UniProt P01019); test: Binding affinity to angiotensin-4 (unknown origin) at 200 uM incubated for 2 hrs irradiated with UV light for 10 mins by MALDI-TOF-MS method
T1 sequence (whole entry): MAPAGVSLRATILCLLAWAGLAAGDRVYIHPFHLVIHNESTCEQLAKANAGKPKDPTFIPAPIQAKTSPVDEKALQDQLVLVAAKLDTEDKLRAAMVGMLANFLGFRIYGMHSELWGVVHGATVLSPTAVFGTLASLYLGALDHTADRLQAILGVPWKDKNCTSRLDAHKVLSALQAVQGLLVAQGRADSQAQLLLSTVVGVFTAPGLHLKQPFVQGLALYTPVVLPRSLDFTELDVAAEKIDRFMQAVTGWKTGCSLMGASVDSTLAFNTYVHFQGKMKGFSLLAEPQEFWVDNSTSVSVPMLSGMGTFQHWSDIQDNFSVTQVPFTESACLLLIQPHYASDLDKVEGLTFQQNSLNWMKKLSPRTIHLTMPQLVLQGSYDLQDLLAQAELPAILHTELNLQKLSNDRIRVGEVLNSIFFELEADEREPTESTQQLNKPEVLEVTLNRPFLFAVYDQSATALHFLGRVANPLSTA

[11] = target: T2, Neuropeptide S (Homo sapiens) (UniProt P0C0P6); test: Binding affinity to neuropeptide-S (unknown origin) at 200 uM incubated for 2 hrs irradiated with UV light for 10 mins by MALDI-TOF-MS method
T2 sequence (whole entry): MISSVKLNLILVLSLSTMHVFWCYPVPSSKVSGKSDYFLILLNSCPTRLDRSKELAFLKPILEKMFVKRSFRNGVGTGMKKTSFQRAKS

Insulin (Homo sapiens) = Insulin (Homo sapiens) (UniProt P01308); test: Binding affinity to human insulin at 200 uM incubated for 2 hrs irradiated with UV light for 10 mins by MALDI-TOF-MS method
Sequence of Insulin (Homo sapiens) (P01308 whole entry): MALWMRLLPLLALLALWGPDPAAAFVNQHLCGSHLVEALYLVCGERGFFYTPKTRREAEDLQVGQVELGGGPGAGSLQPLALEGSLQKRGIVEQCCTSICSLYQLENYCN

[12] = target: Amyloid-beta precursor protein (Homo sapiens) (UniProt P05067); test: Binding affinity to amyloid beta (1 to 42) (unknown origin) assessed as fluorescence intensity at 50 uM irradiated with UV light for 10 mins and measured up to 4 hrs by Thioflavin-T fluorescence assay (reference value: 100%)
[13] = target: Amyloid-beta precursor protein (Homo sapiens) (UniProt P05067); test: Inhibition of fibril formation of amyloid beta (1 to 42) (unknown origin) at 50 uM incubated for 20 mins followed by irradiation with UV light for 10 mins and measured after 12 hrs by atomic force microscopy
[14] = target: Amyloid-beta precursor protein (Homo sapiens) (UniProt P05067); test: Inhibition of amyloid beta (1 to 42) (unknown origin)-mediated cytotoxicity in rat PC12 cells treated with 20 mins compound pre-treated Abeta (1 to 42) followed by UV irradiation for 10 mins […] and measured after 48 hrs by WST8 assay; assay type: cell-based; conditions: PC-12
[15] = target: Amyloid-beta precursor protein (Homo sapiens) (UniProt P05067); test: Binding affinity to amyloid beta (1 to 42) (unknown origin) assessed as fluorescence intensity at 50 uM irradiated with UV light for 10 mins and measured after 60 mins by Thioflavin-T fluorescence assay (reference value: 100%)
[16] = target: Amyloid-beta precursor protein (Homo sapiens) (UniProt P05067); test: Inhibition of amyloid beta (1 to 42) (unknown origin)-mediated cytotoxicity in rat PC12 cells treated with 30 mins compound pre-treated Abeta (1 to 42) followed by UV irradiation for 10 mins […] and measured after 48 hrs by WST8 assay; assay type: cell-based; conditions: PC-12

Question: With CC(C)(C)OC(=O)N[C@@H](Cc1ccc(C2(C(F)(F)F)N=N2)cc1)C(=O)O as the compound, how does the Activity [1] read?
Answer: The Activity was “inactive”.

Question: Which Activity [2] does the source give for CC(C)C[C@H]1NC(=O)[C@@H](CCCCN)NC(=O)[C@@H](Cc2ccccc2)NC(=O)[C@@H](C(c2ccccc2)c2ccccc2)NC(=O)[C@@H](C(C)C)NC1=O here?
Answer: The Activity was 68%.

Question: With C[C@@H]1NC(=O)[C@H](CC(=O)O)NC(=O)[C@H](CCCNC(=N)N)NC(=O)[C@H](Cc2ccc(C3(C(F)(F)F)N=N3)cc2)NC(=O)[C@H](CCC(=O)O)NC1=O (cyclo(AE[Phe(4-CF3-diazirinyl)]RD)) as the compound, how does the Activity [1] read?
Answer: The Activity was “inactive”.

Question: Which results are given for CC(C)C[C@@H]1NC(=O)[C@H](CCCCN)NC(=O)[C@H](Cc2ccc(C3(C(F)(F)F)N=N3)cc2)NC(=O)[C@H](C(c2ccccc2)c2ccccc2)NC(=O)[C@H](C(C)C)NC1=O (cyclo([Dip][Phe(4-CF3-diazirinyl)]KLV))?
Answer: Activity [3]: 10%; Activity [4]: 20%; Activity [5]: 36%; Activity [6]: inactive; Activity [7]: inactive; Activity [1]: Active; Activity [8]: inactive; Activity [9]: Active; Activity [10]: inactive; Activity [11]: inactive; Activity (Insulin (Homo sapiens)): inactive; Activity [2]: 59%; Activity [12]: 21%; inhibition [13]: Active; inhibition [14]: Dose-dependent effect

Question: What does the source list for CC(C)C[C@@H]1NC(=O)[C@H](CCCCN)NC(=O)[C@H](Cc2ccc(C(O)C(F)(F)F)cc2)NC(=O)[C@H](C(c2ccccc2)c2ccccc2)NC(=O)[C@H](C(C)C)NC1=O (stereo not given in full) (cyclo([Dip][X1]KLV))?
Answer: Activity [15]: 21%; inhibition [16]: Dose-dependent effect
